# Experimental data taken from patent US8187320B2, “Medical implants containing FK506 (tacrolimus)” (Abbott Laboratories Vascular Enterprises Limited, priority 2001, dated 2012).
# Several values for one entry are separate records, joined by “and”; a condition that tells them apart may be missing. Equal values may be shown once. Marks after values point to notes of the source that are not given here.
# How the values were obtained:
# [1] = test system: smooth muscle cells (SMC); assay: Inhibition of proliferation of smooth muscle cell (SMC) cultures; type: cell-based
# [2] = test system: neointima formation and foci of inflammation; assay: Animal study: FK506-loaded ceramic-coated stents implanted into the carotid artery of rabbits; type: in vivo, New Zealand rabbits; details: ceramic-coated stents loaded with 60 μg of FK506; rabbit carotid artery; after 28 days
# Method: Stainless steel coronary stents (JOSTENT Flex, 16 mm) were coated with an aluminum oxide ceramic layer. This coating served as carrier of FK506 (as described in Example 5). In this case, the stents were loaded with a total of 60 μg of FK506. In an animal study in rabbits (n=7), these FK506 coated stents and normal stents without coating were implanted into the carotid artery of New Zealand rabbits. The release of FK506 and the effect of FK506 on the growth of the intima and the formation of macrophages and lymphocytes was investigated.
# The release of FK506 were determined by HPLC determination of the amount of FK506 in the blood of the rabbits after 1 hr, 8 hr, 24 hr and 48 hr. FIG. 6 is a graph showing the release of FK506 over time. The rabbits were sacrificed after 28 days, and the implanted stents were examined. The area of newly grown intima (neointima) within the stent was quantified under the optical microscope, and is reported in FIG. 7. There is a reduction of 53% in the formation of neointima for stents loaded with 60 μg of FK506 compared with bare stents. […] The use of stents with a ceramic coating onto which FK506 is applied thus leads to a distinct reduction in neointima and in foci of inflammation after the implantation.
# [3] = Loading of selected active agents onto stent grafts / polyurethane-coated stents; type: physicochemical; details: type A: stent grafts with PTFE polymer layer immersed in solution of dissolved solids
# Source text: Loading of Selected Active Agents onto Stent Grafts All values are stated in μg.
# [4] = Active agent release from stent grafts and polymer-coated stents in PBS buffer at 37° C.; type: physicochemical; details: type A PTFE stent graft, PBS 37° C.
# Method: To analyze the active agent release, a stent was incubated at 37° C. in 10 ml of PBS buffer (stabilized with Na azide) at 37° C. After defined periods of time had elapsed, 2×1 ml of the solution were removed and analyzed. These 2 ml were replaced by fresh PBS buffer (stabilized with Na azide).
# The tables reflect the total released content of active agent in the solution., ie., the amounts of active agent in the buffer volume removed for the analysis are accumulated with amounts detected in subsequent examples.
# neointima formation [5] = details: animal experiments; cited from earlier work
# neointima formation [6] = details: pigs; Heldman 2001; cited from earlier work
# restenosis = details: in vivo; cited from earlier work
compound,measurement,setting,value
"C=CC[C@@H]1/C=C(\C)C[C@H](C)C[C@H](OC)[C@H]2O[C@@](O)(C(=O)C(=O)N3CCCC[C@H]3C(=O)O[C@H](/C(C)=C/[C@@H]3CC[C@@H](O)[C@H](OC)C3)[C@H](C)[C@@H](O)CC1=O)[C@H](C)C[C@@H]2OC (relative stereo) [FK 506, [3S-[3R* [E(1S*, 3S*, 4S*)], 4S*, 5R*,-8S*, 9E, 12R*, 14R*, 15S*, 16R*, 18S*, 19S*, 26aR*]]-5,6,8,11,12, 13, 14, 15, 16, 17, 18, 19, 24, 25, 25, 26, 26a-hexadecahydro-5,19-dihydroxy-3-[2-(4-hydroxy-3-methoxycyclohexyl)-1-methylethenyl]-14,16-dimethoxy-4,10,12,18-tetramethyl-8-(2-propenyl)-15,19-epoxy-3H-pyrido[2,1-c] [1,4]oxaazacyclotricosine-1,7-20,21(4H,23H)-tetrone]",concentrations with inhibitory effect on SMC proliferation,[1],300 to 500 nM
same,reduction in the formation of neointima compared with bare stents,[2],53%
N.N.[Cl][Pt][Cl] [Cisplatin],"amount of active agent loaded, Average",[3],14 µg
same,"amount of active agent loaded, single stent, measured by AAS",[3]; measured by AAS,15* μg and 14* μg
same,"total released content after 24 hr, single determinations",[4]; Cisplatin,12.4 µg and 12.2 µg and 16.1 µg and 15.9 µg and 10.9 µg and 11.1 µg
O=C1c2c(O)ccc(O)c2C(=O)c2c(NCCNCCO)ccc(NCCNCCO)c21 [Mitoxantrone],"amount of active agent loaded, Average",[3],124 µg
same,"amount of active agent loaded, single stent",[3],116 µg and 142 µg and 113 µg
CC(=O)O[C@H]1C(=O)[C@@]2(C)[C@H]([C@H](OC(=O)c3ccccc3)[C@]3(O)C[C@H](OC(=O)[C@H](O)[C@@H](NC(=O)c4ccccc4)c4ccccc4)C(C)=C1C3(C)C)[C@]1(OC(C)=O)CO[C@@H]1C[C@@H]2O [Paclitaxel],"amount of active agent loaded, Average",[3],144 µg
same,"amount of active agent loaded, single stent",[3],128 µg and 155 µg and 148 µg
same,"total released content after 8 hr, single determinations","[4]; Paclitaxel, after 8 hr",1.16 and μg and 1.21 μg and 0.89 and 0.94 μg and 1.42 and 1.25 μg
same,"total released content after 24 hr, single determinations",[4]; Paclitaxel,2.44 and μg and 2.40 μg and 2.26 and 2.27 μg and 1.65 and 1.42 μg
same,"total released content after 96 hr, single determinations","[4]; Paclitaxel, after 96 hr",2.79 and μg and 2.78 μg and 2.82 and 2.82 μg and 1.42 and 1.93 μg
same,"total released content after 192 hr, Average","[4]; Paclitaxel, after 192 hr",2.23 µg
same,"total released content after 192 hr, single determinations","[4]; Paclitaxel, after 192 hr",2.22 µg and 2.24 µg
same,neointima formation,neointima formation [5],inhibit neointima formation
same,duration of beneficial effect of coated stents,neointima formation [6],beneficial effect has been observed to cease after 6 months
CC[C@]1(O)C[C@@H]2CN(CCc3c([nH]c4ccccc34)[C@@](C(=O)OC)(c3cc4c(cc3OC)N(C)[C@H]3[C@@](O)(C(=O)OC)[C@H](OC(C)=O)[C@]5(CC)C=CCN6CC[C@]43[C@@H]65)C2)C1 [Vinblastine],"total released content after 96 hr, Average","[4]; Vinblastine, after 96 hr",136 µg
same,"total released content after 96 hr, single determinations","[4]; Vinblastine, after 96 hr",132 and μg and 140 μg
CO[C@H]1C[C@@H]2CC[C@@H](C)[C@@](O)(O2)C(=O)C(=O)N2CCCC[C@H]2C(=O)O[C@H]([C@H](C)C[C@@H]2CC[C@@H](O)[C@H](OC)C2)CC(=O)[C@H](C)/C=C(\C)[C@@H](O)[C@@H](OC)C(=O)[C@H](C)C[C@H](C)/C=C/C=C/C=C/1C [rapamycin],healing of vessel wall injury caused by balloon angioplasty and stent implantation,restenosis,delays healing of vessel wall injury
